Source: patent US9512113B2, “N-(tetrazol-5-yl)- and N-(triazol-5-yl)arylcarboxylic thioamides and use thereof as herbicides” (BAYER CROPSCIENCE AG, priority 2012, dated 2016)

How the values were obtained:
Format in all cases: in vivo
Zea mays (corn) [1] = test: Pre-emergence action, damage to crop plants; conditions: Table C, 320 g/ha
Description: (§1) Seeds of monocotyledonous and dicotyledonous weed plants and crop plants are placed in wood-fiber pots in sandy loam and covered with soil. The compounds according to the invention, formulated in the form of wettable powders (WP) or as emulsion concentrates (EC), are then applied as aqueous suspension or emulsion at a water application rate of 600 to 800 I/ha (converted) with the addition of 0.2% of wetting agent to the surface of the covering soil. After the treatment, the pots are placed in a greenhouse and kept under good growth conditions for the test plants. The damage to the test plants is assessed visually after a test period of 3 weeks by comparison with untreated controls (herbicidal activity in percent (%): 100% action=the plants have died, 0% action=like control plants). Here, for example, the compounds Nos 1-8, 1-26 and 4-7, at an application rate of 80 g/ha, show an activity of at least 80% against Alopecurus myosuroides, Avena fatua, Cyperus serotinus, Echinochloa crus galli, Lolium multiflorum, Setaria viridis, Abutilon theophrasti, Amaranthus retroflexus, Matricaria inodora, Pharbitis purpureum, Stellaria media, Viola tricolor and Veronica persica.
(§2) These comparative experiments were carried out under the conditions mentioned above by the pre-emergence method and the post-emergence method. In the tables below, the top line in each case states the compound according to the invention, and the bottom line states the compound from WO 2012/028579 A1.

Avena fatua [2] = test: Pre-emergence herbicidal action against harmful plants; conditions: Table C, 320 g/ha
Description: as §1, §2

Polygonum convolvulus [3] = test: as above
Description: as §1, §2

[4] = system: Triticum aestivum (wheat); test: Pre-emergence action, damage to crop plants; conditions: Table D, 320 g/ha
Description: as §1, §2

Pharbitis purpureum [5] = test: Pre-emergence herbicidal action against harmful plants
Description: as §1, §2

[6] = system: Brassica napus (oilseed rape); test: Pre-emergence action, damage to crop plants
Description: as §1, §2

Amaranthus retroflexus [7] = test: Pre-emergence herbicidal action against harmful plants; conditions: Table E, 320 g/ha
Description: as §1, §2

Abutilon theophrasti = test: as above
Description: as §1, §2

Polygonum convolvulus [8] = test: Post-emergence herbicidal action against harmful plants
Procedure: (§3) Seeds of monocotyledonous and dicotyledonous weed and crop plants are placed in sandy loam in wood-fiber pots, covered with soil and cultivated in a greenhouse under good growth conditions. 2 to 3 weeks after sowing, the test plants are treated at the one-leaf stage. The compounds according to the invention, formulated in the form of wettable powders (WP) or as emulsion concentrates (EC), are then sprayed as aqueous suspension or emulsion at a water application rate of 600 to 800 I/ha (converted) with the addition of 0.2% of wetting agent onto the green parts of the plants. After the test plants have been left to stand in the greenhouse under optimal growth conditions for about 3 weeks, the action of the preparations is assessed visually in comparison to untreated controls (herbicidal action in percent (%): 100% action=the plants have died, 0% action=like control plants). Here, for example, the compounds Nos 1-8 and 1-83, at an application rate of 80 g/ha, show an activity of at least 80% against Alopecurus myosuroides, Avena fatua, Cyperus serotinus, Echinochloa crus galli, Lolium multiflorum, Setaria viridis, Abutilon theophrasti, Amaranthus retroflexus, Matricaria inodora, Pharbitis purpureum, Polygonum convolvulus, Stellaria media, Viola tricolor and Veronica persica.
as §2

Pharbitis purpureum [9] = test: as above; conditions: Table G, 5 g/ha
Procedure: as §3, §2

Oryza sativa (rice) [10] = test: Post-emergence action, damage to crop plants; conditions: Table G, 5 g/ha
Procedure: as §3, §2

[11] = system: Triticum aestivum (wheat); test: Post-emergence action, damage to crop plants
Procedure: as §3, §2

Oryza sativa (rice) [12] = test: Pre-emergence action, damage to crop plants; conditions: 20 g/ha
Description: as §1, §2

Cyperus serotinus = test: Pre-emergence herbicidal action against harmful plants; conditions: Table B, 20 g/ha
Description: as §1, §2

Echinochloa crus galli [13] = test: as above; conditions: 20 g/ha
Description: as §1, §2

Echinochloa crus galli [14] = test: Post-emergence herbicidal action against harmful plants; conditions: Table H, 5 g/ha
Procedure: as §3, §2

Setaria viridis = test: as above; conditions: Table H, 5 g/ha
Procedure: as §3, §2

Amaranthus retroflexus [15] = test: as above; conditions: Table H, 5 g/ha
Procedure: as §3, §2

Alopecurus myosuroides = test: as above; conditions: Table I, 80 g/ha
Procedure: as §3, §2

Lolium multiflorum = test: as above; conditions: 80 g/ha
Procedure: as §3, §2

Zea mays (corn) [16] = test: Post-emergence action, damage to crop plants; conditions: 80 g/ha
Procedure: as §3, §2

Avena fatua [17] = test: Post-emergence herbicidal action against harmful plants; conditions: Table K, 80 g/ha
Procedure: as §3, §2

Cn1nnnc1NC(=S)c1ccc(S(C)(=O)=O)c(COCC(F)(F)F)c1Cl
Damage to crop plants ZEAMX (Zea mays (corn) [1]): 0% | Herbicidal efficacy against AVEFA (Avena fatua [2]): 90% | Herbicidal efficacy against POLCO (Polygonum convolvulus [3]; Table C, 320 g/ha): 90%

Cn1nnnc1NC(=O)c1ccc(S(C)(=O)=O)c(COCC(F)(F)F)c1Cl
Damage to crop plants ZEAMX (Zea mays (corn) [1]): 20% | Herbicidal efficacy against AVEFA (Avena fatua [2]): 70% | Herbicidal efficacy against POLCO (Polygonum convolvulus [3]; Table C, 320 g/ha): 50%

Cc1nc(C(F)(F)F)ccc1C(=S)Nc1nnnn1C
Damage to crop plants TRZAS [4]: 0% | Herbicidal efficacy against POLCO (Polygonum convolvulus [3]; Table D, 320 g/ha): 80% | Herbicidal efficacy against PHBPU (Pharbitis purpureum [5]; Table D, 320 g/ha): 80%

Cc1nc(C(F)(F)F)ccc1C(=O)Nc1nnnn1C
Damage to crop plants TRZAS [4]: 20% | Herbicidal efficacy against POLCO (Polygonum convolvulus [3]; Table D, 320 g/ha): 60% | Herbicidal efficacy against PHBPU (Pharbitis purpureum [5]; Table D, 320 g/ha): 60%

Cc1c(C(=S)Nc2ncnn2C)ccc(S(C)(=O)=O)c1S(C)(=O)=O
Damage to crop plants BRSNW ([6]; Table E, 320 g/ha): 0% | Herbicidal efficacy against AMARE (Amaranthus retroflexus [7]): 90% | Herbicidal efficacy against ABUTH (Abutilon theophrasti; Table E, 320 g/ha): 80%

Cc1c(C(=O)Nc2ncnn2C)ccc(S(C)(=O)=O)c1S(C)(=O)=O
Damage to crop plants BRSNW ([6]; Table E, 320 g/ha): 20% | Herbicidal efficacy against AMARE (Amaranthus retroflexus [7]): 40% | Herbicidal efficacy against ABUTH (Abutilon theophrasti; Table E, 320 g/ha): 0%

CCOc1c(S(C)(=O)=O)ccc(C(=S)Nc2nnnn2C)c1Cl
Herbicidal efficacy against POLCO (Polygonum convolvulus [8]; Table G, 5 g/ha): 60% | Herbicidal efficacy against PHBPU (Pharbitis purpureum [9]): 80% | Damage to crop plants ORYSA (Oryza sativa (rice) [10]): 10% | Damage to crop plants TRZAS ([11]; Table G, 5 g/ha): 0%

CCOc1c(S(C)(=O)=O)ccc(C(=O)Nc2nnnn2C)c1Cl
Herbicidal efficacy against POLCO (Polygonum convolvulus [8]; Table G, 5 g/ha): 40% | Herbicidal efficacy against PHBPU (Pharbitis purpureum [9]): 20% | Damage to crop plants ORYSA (Oryza sativa (rice) [10]): 40% | Damage to crop plants TRZAS ([11]; Table G, 5 g/ha): 30%

Cn1nnnc1NC(=S)c1ccc(C(F)(F)F)cc1S(C)(=O)=O
Herbicidal efficacy against POLCO (Polygonum convolvulus [8]; Table J, 80 g/ha): 90% | Damage to crop plants TRZAS ([11]; Table J, 80 g/ha): 20%

Cn1nnnc1NC(=O)c1ccc(C(F)(F)F)cc1S(C)(=O)=O
Herbicidal efficacy against POLCO (Polygonum convolvulus [8]; Table J, 80 g/ha): 70% | Damage to crop plants TRZAS ([11]; Table J, 80 g/ha): 60%

Cc1c(C(=S)Nc2nnnn2C)ccc(S(C)(=O)=O)c1Cl [drawing 8]
Damage to crop plants BRSNW ([6]; Table A, 20 g/ha): 0% | Herbicidal efficacy against PHBPU (Pharbitis purpureum [5]; Table A, 20 g/ha): 20% | Herbicidal efficacy against ABUTH (Abutilon theophrasti; Table A, 20 g/ha): 90%

Cc1c(C(=O)Nc2nnnn2C)ccc(S(C)(=O)=O)c1Cl [drawing 9]
Damage to crop plants BRSNW ([6]; Table A, 20 g/ha): 20% | Herbicidal efficacy against PHBPU (Pharbitis purpureum [5]; Table A, 20 g/ha): 0% | Herbicidal efficacy against ABUTH (Abutilon theophrasti; Table A, 20 g/ha): 70%

CCCn1nnnc1NC(=S)c1ccc(C(F)(F)F)c(S(C)(=O)=O)c1C [drawing 10]
Damage to crop plants ORYSA (Oryza sativa (rice) [12]; Table B): 0% | Herbicidal efficacy against CYPES (Cyperus serotinus): 100% | Herbicidal efficacy against ECHCG (Echinochloa crus galli [13]; Table B): 20%

CCCn1nnnc1NC(=O)c1ccc(C(F)(F)F)c(S(C)(=O)=O)c1C [drawing 11]
Damage to crop plants ORYSA (Oryza sativa (rice) [12]; Table B): 50% | Herbicidal efficacy against CYPES (Cyperus serotinus): 0% | Herbicidal efficacy against ECHCG (Echinochloa crus galli [13]; Table B): 0%

Cc1c(C(=S)Nc2nnnn2C)ccc(C(F)(F)F)c1S(C)(=O)=O [drawing 18]
Damage to crop plants BRSNW ([6]; Table F, 20 g/ha): 0% | Damage to crop plants ORYSA (Oryza sativa (rice) [12]; Table F): 20% | Herbicidal efficacy against POLCO (Polygonum convolvulus [3]; Table F, 20 g/ha): 60% | Herbicidal efficacy against ECHCG (Echinochloa crus galli [13]; Table F): 100%

Cc1c(C(=O)Nc2nnnn2C)ccc(C(F)(F)F)c1S(C)(=O)=O [drawing 19]
Damage to crop plants BRSNW ([6]; Table F, 20 g/ha): 30% | Damage to crop plants ORYSA (Oryza sativa (rice) [12]; Table F): 50% | Herbicidal efficacy against POLCO (Polygonum convolvulus [3]; Table F, 20 g/ha): 0% | Herbicidal efficacy against ECHCG (Echinochloa crus galli [13]; Table F): 20%

Cc1c(C(=S)Nc2nnnn2C)ccc(S(C)(=O)=O)c1Cl [drawing 22]
Herbicidal efficacy against ECHCG (Echinochloa crus galli [14]): 70% | Herbicidal efficacy against SETVI (Setaria viridis): 40% | Herbicidal efficacy against AMARE (Amaranthus retroflexus [15]): 40%

Cc1c(C(=O)Nc2nnnn2C)ccc(S(C)(=O)=O)c1Cl [drawing 23]
Herbicidal efficacy against ECHCG (Echinochloa crus galli [14]): 10% | Herbicidal efficacy against SETVI (Setaria viridis): 0% | Herbicidal efficacy against AMARE (Amaranthus retroflexus [15]): 20%

CCCn1nnnc1NC(=S)c1ccc(C(F)(F)F)c(S(C)(=O)=O)c1C [drawing 24]
Herbicidal efficacy against ALOMY (Alopecurus myosuroides): 80% | Herbicidal efficacy against LOLMU (Lolium multiflorum; Table I): 20% | Damage to crop plants ZEAMX (Zea mays (corn) [16]; Table I): 0%

CCCn1nnnc1NC(=O)c1ccc(C(F)(F)F)c(S(C)(=O)=O)c1C [drawing 25]
Herbicidal efficacy against ALOMY (Alopecurus myosuroides): 30% | Herbicidal efficacy against LOLMU (Lolium multiflorum; Table I): 0% | Damage to crop plants ZEAMX (Zea mays (corn) [16]; Table I): 20%

Cc1c(C(=S)Nc2nnnn2C)ccc(C(F)(F)F)c1S(C)(=O)=O [drawing 28]
Herbicidal efficacy against AVEFA (Avena fatua [17]): 90% | Herbicidal efficacy against LOLMU (Lolium multiflorum; Table K): 90% | Damage to crop plants ZEAMX (Zea mays (corn) [16]; Table K): 50%

Cc1c(C(=O)Nc2nnnn2C)ccc(C(F)(F)F)c1S(C)(=O)=O [drawing 29]
Herbicidal efficacy against AVEFA (Avena fatua [17]): 70% | Herbicidal efficacy against LOLMU (Lolium multiflorum; Table K): 70% | Damage to crop plants ZEAMX (Zea mays (corn) [16]; Table K): 70%
